Laboratory results published in patent US6355619B1, “Peptide tumor cell growth inhibitors” (Board of Regents, The University of Texas System, priority 1996, dated 2002).
pEC50: −log10 of the molar value.

Experiments:
[1] = target: T1, MIP2β binding to human neutrophils (Homo sapiens, UniProt P25025); assay: Binding of radioiodinated MIP2β to human neutrophils; conditions: 1 nM MIP2β
T1 construct: endogenous in cells; host or cells: human neutrophils
Protocol: FIG. 10. Ac-RRWWCX (SEQ ID NO:23) Inhibits Binding of GRO and MIP2β to human neutrophils. Radioiodinated MIP2β and GRO/MGSA were mixed with various concentration of Ac-RRWWCR-NH2 and incubated at room temperature for 15 min. Neutrophil suspension (1×10^6 cells in 160 μl PBS containing 0.1% BSA) was added to 40 μl of the mixture and incubated for 90 min on ice. The radioactivity bound to the cells was separated from free radioactivity by centrifugation through an oil layer. The % binding inhibition was calculated as follows: [formula]
MIP2β and GRO/MGSA were radioiodinated using Bolten Hunter reagent. The radioiodinated components were mixed with various concentration of the Ac-RRWWCX-NH2 (SEQ ID NO:23) peptide and incubated at room temperature for 15 min. Neutrophil suspension (1×10^6 cells in 160 μl PBS containing 0.1% BSA) was added to 40 μl of the mixture and incubated for 90 min on ice. The radioactivity bound to the cells was separated from free radioactivity by centrifugation through an oil layer. The bound radioactivity is an indication of bound CXC intercrine peptide. The % binding inhibition in the presence of Ac-RRWWCX-NH2 (SEQ ID NO:23) was calculated as follows: [formula]
where B is bound radioactivity in the presence of the peptide, T is bound radioactivity in the absence of the peptide, and NSP is bound radioactivity in the presence of excess nonlabeled ligand.

WM115 melanoma cells = assay: Tumor cell growth, WM115; format: cell-based
[2] = test system: leukotriene B4-stimulated neutrophil enzyme release; assay: β-glucuronidase release from neutrophils stimulated by leukotriene B4; format: cell-based, human; conditions: 100 nM leukotriene B4
Protocol: (§1) FIG. 8. The Effect of Ac-RRWWCR-NH2 (SEQ ID NO:1) on β-glucuronidase Release. Neutrophils pretreated with cytochalasin B were incubated with 100 nM IL-8 (●), 100 nM fMLP (▪), 100 nM C5a (_) or 100 nM leukotriene B4 ? or without any stimulant (◯) in the presence of increasing concentration of Ac-RRWWCR-NH2 (SEQ ID NO:1) for 30 min at 37° C. β-glucuronidase activity of supernatants were measured using phenolphthalein-glucuronic acid as substrate. Analysis of variance was used for multiple comparison.
(§2) Neutrophil enzyme release was studied by a modification of the method of Goldstein and colleagues (Goldstein et al., 1973). Cytochalasin B (Sigma Chemical Co.) was stored in dimethyl sulfoxide at a concentration of 5 mg/ml and was diluted to a concentration of 50 μg/ml in Hank's Balanced Salt Solution (HBSS) immediately before use. Cytochalasin B, 200 μl, was added to 1 ml of suspension of neutrophils, 6.25×10^6 cells/ml in HBSS, to achieve a final cytochalasin B concentration of […]. The solution was then incubated in 96 well plates at room temperature for 10 min. The stimulant, 100 μl, was added, and this cell suspension was incubated for 30 min at 37° C. The plates were centrifuged and 100 μl of supernatant was removed. […] After 16 hr incubation at 37° C., 200 μl of 0.2 M Glycine in 0.2 M NaCl, pH10.4 was added to each well and OD540 was measured as the enzyme activity.

[3] = test system: IL-8-stimulated neutrophil enzyme release; assay: β-glucuronidase release from neutrophils stimulated by IL-8; format: cell-based, human
Protocol: as §1, §2

Hs 294T melanoma cells = assay: Cell growth assay, Hs 294T; format: cell-based, human
Protocol: FIG. 15A. The effect of Antileukinate on the growth of melanoma cells. Melanoma cell lines and a control liver cancer cell line (2×10^4 cells/well) in 500 μl were cultured in a 24 well tissue culture plate in the presence of various concentrations of Antileukinate for 3 d. The culture media were changed to fresh media containing the same concentration of Antileukinate every 24 hr during the incubation period. After incubation, the cells were collected and the cell number was counted using a hemocytometer. Hs 294 T cell line. Analysis of variance was used for multiple comparison.
The cell lines (2×10^4 cells/well) in 500 μl cell culture medium were grown in 24 well tissue culture plates. After the cells adhered to the plate, the supernatants were aspirated and 500 μl of media containing various concentrations of Antileukinate were added to the wells. The cells were cultured for period indicated in the text. The culture media were changed to fresh media every 24 hr. After incubation, the cells were detached with trypsin-EDTA solution (Life Technologies Inc., Gaithersburg, Md., containing 0.05% of trypsin and 0.53 mM of EDTA in Hanks Balanced Salt Solution without Ca^2+ and Mg^2+) and the cell number was counted using a hemocytometer.

[4] = 100 μM peptide, 72 hr, trypan blue dye exclusion
Protocol: The viability of Hs 294T cells after the culture for 72 hr in the presence of Antileukinate. Melanoma cell line Hs 294T was cultured in the presence of various concentrations of Antileukinate for 72 hr. The viability of the cells was measured by means of trypan blue dye exclusion.

T1 sequence (P25025 whole entry): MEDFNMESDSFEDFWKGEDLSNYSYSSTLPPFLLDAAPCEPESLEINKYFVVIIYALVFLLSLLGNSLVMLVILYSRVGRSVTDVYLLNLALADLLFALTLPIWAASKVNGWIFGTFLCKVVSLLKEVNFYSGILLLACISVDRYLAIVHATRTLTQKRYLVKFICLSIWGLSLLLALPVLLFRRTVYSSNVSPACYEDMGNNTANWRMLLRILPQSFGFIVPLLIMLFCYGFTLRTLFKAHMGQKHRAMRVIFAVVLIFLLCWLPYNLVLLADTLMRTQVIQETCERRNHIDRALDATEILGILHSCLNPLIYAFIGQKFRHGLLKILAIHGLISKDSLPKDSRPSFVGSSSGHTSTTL

Substance: RRWWCR [Ac-RRWWCR-NH2]
- effect on binding of MIP2β to neutrophils ([1]; listed as Ac-RRWWCX-NH2): effectively suppress the binding
- effect on binding of MIP2β to neutrophils ([1]; listed as Antileukinate): suppressed the binding
- effect on cell growth (WM115 melanoma cells): suppresses the growth
- effect on enzyme release stimulated by leukotriene B4 [2]: did not affect the enzyme release
- pEC50 ([3]; read-out: EC50, inhibition of enzyme release from neutrophils stimulated by IL-8): 6.10
- peptide concentration inhibiting β-glucuronidase release ([3]; stimulated by 100 nM IL-8): 2 µM
- cell growth at 100 μM peptide (Hs 294T melanoma cells; 100 μM): suppressed the cell growth almost completely
- peptide concentration significantly inhibiting growth (Hs 294T melanoma cells; 72 hr): 10 µM
- pEC50 (Hs 294T melanoma cells; 72 hr, medium changed every 24 hr, read-out: ED50, cell growth inhibition): 4.74
- viability of Hs 294T cells [4]: greater than 92%
